Data reported in PubChem BioAssay AID256 (DTP/NCI, 2004).
Toxic doses and inconclusive results are not listed. How the source made its calls: active means survival T/C of 150% or more; inactive means T/C below 125% in these data.

System: CD2F1 mice, L1210 leukemia ip, survival T/C
Experiment: NCI In Vivo Anticancer Drug Screen. Data for tumor model L1210 Leukemia (intraperitoneal) in CD2F1 (CDF1) mice
Details: higher = longer survival
Summary of the method: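 In this screen, transplantable tumors were grown in mice given either the compound or its vehicle. Results were expressed as the treated measurement relative to the control measurement.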

[1] = endpoint: mean survival time, dose: 50.0 mg/kg/injection, schedule: Q04DX003 (ip), vehicle: saline
[2] = endpoint: mean survival time, dose: 100.0 mg/kg/injection, schedule: Q04DX003 (ip), vehicle: saline
[3] = endpoint: mean survival time, dose: 200.0 mg/kg/injection, schedule: Q04DX003 (ip), vehicle: saline
[4] = endpoint: mean survival time, dose: 100.0 mg/kg/injection, schedule: Q04DX002 (ip), vehicle: saline with Tween-80
[5] = endpoint: mean survival time, dose: 200.0 mg/kg/injection, schedule: Q04DX002 (ip), vehicle: saline with Tween-80
[6] = endpoint: mean survival time, dose: 100.0 mg/kg/injection, schedule: Q01DX009 (ip), vehicle: saline with Tween-80
[7] = endpoint: mean survival time, dose: 100.0 mg/kg/injection, schedule: Q04DX003 (ip), vehicle: saline with Tween-80
[8] = endpoint: mean survival time, dose: 200.0 mg/kg/injection, schedule: Q01DX009 (ip), vehicle: saline with Tween-80
[9] = endpoint: mean survival time, dose: 200.0 mg/kg/injection, schedule: Q04DX003 (ip), vehicle: saline with Tween-80
[10] = endpoint: mean survival time, dose: 400.0 mg/kg/injection, schedule: Q04DX003 (ip), vehicle: saline with Tween-80
[11] = endpoint: mean survival time, dose: 50.0 mg/kg/injection, schedule: Q01DX009 (ip), vehicle: saline with Tween-80
[12] = endpoint: mean survival time, dose: 100.0 mg/kg/injection, schedule: Q04DX003 (ip), vehicle: Klucel (hydroxypropylcellulose) (HPC)
[13] = endpoint: mean survival time, dose: 200.0 mg/kg/injection, schedule: Q04DX003 (ip), vehicle: Klucel (hydroxypropylcellulose) (HPC)
[14] = endpoint: mean survival time, dose: 400.0 mg/kg/injection, schedule: Q04DX003 (ip), vehicle: Klucel (hydroxypropylcellulose) (HPC)
[15] = endpoint: mean survival time, dose: 400.0 mg/kg/injection, schedule: Q04DX002 (ip), vehicle: saline with Tween-80

Measured: T/C

CC(=O)Nc1cc(Cl)c2ncn(C3OC(CO)C(O)C3O)c2n1 (centres undefined)
inactive: endpoint: mean survival time, dose: 12.5 mg/kg/injection, schedule: Q01DX005 (ip), vehicle: water 102 % of control | endpoint: mean survival time, dose: 25.0 mg/kg/injection, schedule: Q01DX005 (ip), vehicle: water 95 % of control | endpoint: mean survival time, dose: 50.0 mg/kg/injection, schedule: Q01DX005 (ip), vehicle: water 102 % of control | endpoint: mean survival time, dose: 100.0 mg/kg/injection, schedule: Q01DX005 (ip), vehicle: water 91 % of control | endpoint: mean survival time, dose: 200.0 mg/kg/injection, schedule: Q01DX005 (ip), vehicle: water 101 % of control

c1ccc(OP(Oc2ccccc2)Oc2ccccc2)cc1
inactive: [1] 98 % of control | [2] 104 % of control | [3] 96 % of control

O=S(=O)(F)c1ccc(Cl)c(Cl)c1S
inactive: [4] 98 % of control | [5] 98 % of control

CC(=O)O.CC(=O)O.CC(=O)O.[O]=[U]=[O]
inactive: endpoint: mean survival time, dose: 12.5 mg/kg/injection, schedule: Q01DX009 (ip), vehicle: saline 98 % of control | endpoint: mean survival time, dose: 25.0 mg/kg/injection, schedule: Q01DX009 (ip), vehicle: saline 98 % of control | endpoint: mean survival time, dose: 50.0 mg/kg/injection, schedule: Q01DX009 (ip), vehicle: saline 90 % of control

CC(=O)OCc1ccc(/C=N/Nc2ccc([N+](=O)[O-])cc2[N+](=O)[O-])cc1Br
inactive: [3] 108 % of control | endpoint: mean survival time, dose: 400.0 mg/kg/injection, schedule: Q04DX003 (ip), vehicle: saline 100 % of control

SCc1ccccc1
inactive: endpoint: mean survival time, dose: 100.0 mg/kg/injection, schedule: Q01DX001 (ip), vehicle: saline with Tween-80 110 % of control | endpoint: mean survival time, dose: 200.0 mg/kg/injection, schedule: Q01DX001 (ip), vehicle: saline with Tween-80 98 % of control | endpoint: mean survival time, dose: 400.0 mg/kg/injection, schedule: Q01DX001 (ip), vehicle: saline with Tween-80 105 % of control

O=C1C2(Cl)C(Cl)=C(Cl)C1(Cl)C1(Cl)C(Cl)=C(Cl)C(=O)C21Cl (centres undefined)
inactive: endpoint: mean survival time, dose: 10.0 mg/kg/injection, schedule: Q01DX009 (ip), vehicle: saline with Tween-80 94 % of control | endpoint: mean survival time, dose: 20.0 mg/kg/injection, schedule: Q01DX009 (ip), vehicle: saline with Tween-80 94 % of control | endpoint: mean survival time, dose: 40.0 mg/kg/injection, schedule: Q01DX009 (ip), vehicle: saline with Tween-80 92 % of control

CCOC(=O)C=C1CCN(C)CC1
inactive: [1] 94 % of control | [2] 97 % of control | [3] 97 % of control

CCOC(=O)c1cnc(SCc2ccccc2)nc1N
inactive: [6] 92 % of control | [7] 100 % of control | [8] 94 % of control | [9] 100 % of control | endpoint: mean survival time, dose: 400.0 mg/kg/injection, schedule: Q01DX009 (ip), vehicle: saline with Tween-80 96 % of control | [10] 97 % of control

O=C(c1ccccc1)C1CCCCC1
inactive: endpoint: mean survival time, dose: 100.0 mg/kg/injection, schedule: Q01DX009 (ip), vehicle: saline 88 % of control | endpoint: mean survival time, dose: 200.0 mg/kg/injection, schedule: Q01DX009 (ip), vehicle: saline 97 % of control | endpoint: mean survival time, dose: 400.0 mg/kg/injection, schedule: Q01DX009 (ip), vehicle: saline 92 % of control

[CH3][Sb]([CH3])([CH3])([O]C(=O)CC#N)[O]C(=O)CC#N
inactive: [7] 92 % of control | [9] 92 % of control | [10] 97 % of control

CN(C)c1ccc(/C=N/NC(=O)NN)cc1
inactive: endpoint: mean survival time, dose: 12.5 mg/kg/injection, schedule: Q01DX009 (ip), vehicle: saline with Tween-80 98 % of control | endpoint: mean survival time, dose: 12.5 mg/kg/injection, schedule: Q04DX003 (ip), vehicle: saline with Tween-80 98 % of control | endpoint: mean survival time, dose: 25.0 mg/kg/injection, schedule: Q01DX009 (ip), vehicle: saline with Tween-80 100 % of control | endpoint: mean survival time, dose: 25.0 mg/kg/injection, schedule: Q04DX003 (ip), vehicle: saline with Tween-80 98 % of control | [11] 98 % of control | endpoint: mean survival time, dose: 50.0 mg/kg/injection, schedule: Q04DX003 (ip), vehicle: saline with Tween-80 104 % of control

O=C1CN=C(c2ccccn2)c2cc(Br)ccc2N1
inactive: [12] 95 % of control | endpoint: mean survival time, dose: 119.0 mg/kg/injection, schedule: Q01DX009 (ip), vehicle: Klucel (hydroxypropylcellulose) (HPC) 95 % of control | endpoint: mean survival time, dose: 187.0 mg/kg/injection, schedule: Q01DX009 (ip), vehicle: Klucel (hydroxypropylcellulose) (HPC) 100 % of control | [13] 104 % of control | endpoint: mean survival time, dose: 266.0 mg/kg/injection, schedule: Q01DX009 (ip), vehicle: Klucel (hydroxypropylcellulose) (HPC) 95 % of control | endpoint: mean survival time, dose: 400.0 mg/kg/injection, schedule: Q01DX009 (ip), vehicle: Klucel (hydroxypropylcellulose) (HPC) 94 % of control | [14] 104 % of control | endpoint: mean survival time, dose: 600.0 mg/kg/injection, schedule: Q01DX009 (ip), vehicle: Klucel (hydroxypropylcellulose) (HPC) 95 % of control

Cc1csc2[nH]c(=O)[nH]c(=O)c12
inactive: [7] 96 % of control | [9] 94 % of control | [10] 87 % of control

O=C(CN1CC1)NCCCCCCCCCNC(=O)CN1CC1
inactive: endpoint: mean survival time, dose: 22.0 mg/kg/injection, schedule: Q01DX001 (ip), vehicle: carboxymethylcellulose (CMC) 113 % of control | endpoint: mean survival time, dose: 33.0 mg/kg/injection, schedule: Q01DX001 (ip), vehicle: carboxymethylcellulose (CMC) 117 % of control

CCCSc1ccc2nc(NC(=O)OC)[nH]c2c1
inactive: [11] 93 % of control | [6] 107 % of control | [8] 118 % of control

S=c1cc[nH]c2ccccc12
inactive: endpoint: mean survival time, dose: 12.5 mg/kg/injection, schedule: Q01DX009 (ip), vehicle: other 104 % of control | endpoint: mean survival time, dose: 25.0 mg/kg/injection, schedule: Q01DX009 (ip), vehicle: other 102 % of control | endpoint: mean survival time, dose: 50.0 mg/kg/injection, schedule: Q01DX009 (ip), vehicle: other 104 % of control

COC(=O)c1ccc([N+](=O)[O-])cc1C(=O)OC
inactive: [7] 100 % of control | [9] 108 % of control | [10] 102 % of control

CCCCCCCSc1nc2ccccc2s1
inactive: [4] 95 % of control | [5] 98 % of control | [15] 90 % of control

NC(=O)c1ccc[n+](CCN(CCCl)c2ccc3ccccc3c2)c1
inactive: endpoint: mean survival time, dose: 1.25 mg/kg/injection, schedule: Q01DX009 (ip), vehicle: Klucel (hydroxypropylcellulose) (HPC) 104 % of control | endpoint: mean survival time, dose: 2.5 mg/kg/injection, schedule: Q01DX009 (ip), vehicle: Klucel (hydroxypropylcellulose) (HPC) 107 % of control | endpoint: mean survival time, dose: 5.0 mg/kg/injection, schedule: Q01DX009 (ip), vehicle: Klucel (hydroxypropylcellulose) (HPC) 102 % of control

C/C(=N\NC(N)=S)C1=C(O)C(Cc2ccccc2)NC1=O (centres undefined)
inactive: [4] 100 % of control | [5] 100 % of control | [15] 100 % of control

Cc1ccc2c(/C=C/c3ccc(N(C)C)cc3)ccnc2c1
inactive: [12] 93 % of control | [13] 104 % of control | [14] 116 % of control

O=C(O)CCCCCCCC(=O)O
inactive: endpoint: median survival time, dose: 6.25 mg/kg/injection, schedule: Q01DX009 (ip), vehicle: distilled water + Tween-80 101 % of control | endpoint: median survival time, dose: 12.5 mg/kg/injection, schedule: Q01DX009 (ip), vehicle: distilled water + Tween-80 95 % of control | endpoint: median survival time, dose: 25.0 mg/kg/injection, schedule: Q01DX009 (ip), vehicle: distilled water + Tween-80 101 % of control | endpoint: median survival time, dose: 50.0 mg/kg/injection, schedule: Q01DX009 (ip), vehicle: distilled water + Tween-80 89 % of control | endpoint: median survival time, dose: 100.0 mg/kg/injection, schedule: Q01DX009 (ip), vehicle: distilled water + Tween-80 97 % of control

CN(c1ccccc1Cl)S(C)(=O)=O
inactive: [7] 98 % of control | [9] 97 % of control | [10] 90 % of control
